Entries after “also recorded” stand apart in the source; their conditions may differ. Where no end group is shown, it is not given here.
Tests used:
[1] = system: Erwinia carotovora carotovora strain SR319 (Ecc SR319); assay: Antibacterial bioassay, minimum complete inhibitory concentration (MCIC); format: cell-based; conditions: for activity against Ecc SR319 (in words): even at concentrations higher than 150 micrograms AMPPP/mL; for MEAN MCIC VALUE: lowest peptide concentration with no bacterial growth, after 20 hours, Luria broth, 28° C., mean of at least three replicate experiments
Description: Erwinia carotovora carotovora strain SR319 (Ecc SR319) (a gift of Dr. C. H. Liao, USDA-ARS, Philadelphia, Pa.) was streaked on a plate of LB agar and grown overnight at 28° C. After 24 hours, a loopful of Ecc SR319 was picked from the agar plate and was added to 3 mL of Luria broth (10 g Bacto-tryptone, 5 g Bacto-yeast extract, and 10 g sodium chloride per liter of solution; autoclaved sterile) in a capped, sterile 10 mL test tube. This culture was grown overnight before its optical density at 630 nm was recorded using a Dynatech MR600 microplate reader (Dynatech Laboratories, Inc., Alexandria, Va.). A portion of the overnight culture was adjusted with Luria broth to obtain a culture with an optical density at 630 nm of 0.2. About 250 microliters of this culture was added to 2250 microliters of Luria broth in a capped, sterile 10 mL test tube before this diluted culture was grown for 3 hours at 28° C. in a shaking incubator. The optical density at 630 nm of the freshly grown culture was recorded and a portion of this mid-logarithmic growth phase culture was diluted 1000-fold with Luria broth to an approximate concentration of about 10^5 colony forming units per mL of culture. About 85 microliters of this diluted culture was added to 12 wells in a 96 well microtiter plate for each AMPPP to be tested, with 1-4 replicate sets of 12 wells prepared for each AMPPP within a single experiment. Stock solutions of each AMPPP were prepared at a concentration of 1 mg/mL and 0-15 microliters of each peptide stock solution were added to a single well in the microtiter plate followed by a sufficient volume of water to bring the total well volume to 100 microliters. Typical peptide volumes assayed were 0, 1, 2, 3, 4, 5, 6, 7, 8, 9, 10 and 15 microliters, which corresponds to a final peptide concentration in the range of 0-150 micrograms/mL. The microtiter plates were sealed with parafilm and incubated on a shaking platform at 28° C. for 44 hours. The optical density of each Ecc SR319 culture well was recorded at 20 hours and then at 44 hours. A minimum complete inhibitory concentration (MCIC) was then determined for each replicate set of varying peptide concentrations for each AMPPP whereby the MCIC is defined as the lowest peptide concentration at which no bacterial growth was observed. Table I lists mean MCIC values computed after 20 hours of treatment from at least three replicate experiments with each AMPPP. "Met(S)(O)" and "Met(R)(O)" refer to the diastereomeric forms of a methionine sulfoxide residue.
Although most of the AMPPP compounds listed in Table I were greater than 95% homogeneous following reverse phase HPLC purification, AMPPPs #24-26 and #28 were only 50-80% pure following partial purification and salt exchange by ion exchange chromatography.

[2] = system: P3 Fusarium; assay: Antifungal bioassay (spore germination MCIC); format: cell-based, P3 Fusarium (field isolate); conditions: lowest concentration with no spore germination, after 24 hours
Description: (§1) Fungi are grown on an appropriate medium, in this case a potato dextrose agar plate, for several weeks. At the end of that period, the plate was flooded with about 5 mL of sterile distilled water to harvest spores. The spore concentration was determined by use of a hemocytometer and the spore suspension was stored in a sterile tube at 4° C. until it was needed. Then 82 microliters of potato dextrose broth and 3 microliters of spore suspension (ranging from 10^5 to 10^7 spores total) was then added to 12 wells in a 96 well microtiter plate for each AMPPP to be tested, with 1-4 replicate sets of 12 wells prepared for each AMPPP within a single experiment. […] The amount of spore germination and fungal growth was recorded as a qualitative measurement at each observation time using a system of pluses and minuses: [-] meant no germination having occurred, [+] meant swollen spores with an extended germ tube, [++] meant the beginnings of mycelial growth with the overall appearance of a loose lattice, and [+++] meant a dense mycelial growth with the overall appearance of a thick opaque meshwork. The MCIC value for each AMPPP tested was then recorded, where the MCIC value is defined as the lowest peptide concentration at which no spore germination occurred (rating=[-]). […]

[3] = system: Trichoderma reesei; assay: Antifungal bioassay (spore germination MCIC); format: cell-based; conditions: lowest concentration with no spore germination, after 24 hours
Description: as §1

[4] = system: P3 Fusarium; assay: Effect of ECF or spent media on antifungal activity of AMPPPs; format: cell-based; conditions: ECF source Tobacco Leaf, 10% (v/v); comparison of MCIC with and without ECF
Excerpt: It is critical to understand the effect of plant proteolytic enzymes on AMPPP activity because any AMPPP applied to crop plants will be in contact with plant tissues and any associated plant proteases. It is important to assess the bioactivity of an AMPPP which may be cleaved by one or more plant proteases as well as to recognize that such an event has occurred. An extract of extracellular fluid (ECF) as described in Example 14 is a useful reagent in determining such loss of antimicrobial activity of AMPPPs due to exposure to plant proteases in the extracellular compartment of plant tissues. Bioassay experiments were conducted with 300-1000 pregerminated P3 Fusarium spores essentially as described in Example 13 for various AMPPPs exposed to ECF from several crop species, or exposed to spent media collected as a supernatant from centrifuged three-day-old P3 Fusarium cultures grown in potato dextrose broth (PDB), corn stalk medium (CSM), or water as detailed below. The only major difference in the bioassay method used from that described in Example 13 was that the bioassay was conducted in a total culture volume of 10 microliters rather than 100 microliters. ECF was present in these bioassays at a final concentration of 10% (v/v) and was added concurrently with an AMPPP to the Fusarium spores at various AMPPP concentrations. […]

[5] = extracellular fluid (ECF) from tobacco leaf in 50 mM Tris, pH 7.4; conditions: 37° C., up to one hour
[6] = system: extracellular plant proteases; assay: Resistance to proteolytic degradation by leaf extracellular fluid (ECF), HPLC; format: in vitro ADME, tobacco; conditions: 2.5% (v/v) ECF, 50 mM Tris pH 7.4, 37° C., one hour, relative to area of parent peak with no added ECF
Excerpt: To determine the sensitivity of AMPPPs to extracellular proteases, and to determine the site of processing by these proteases, a system was designed to obtain extracellular fluid from leaves of maize, tobacco, and potato and to use these to test the stability of AMPPPs.
Extracellular fluid (ECF) was obtained in accordance with Z. Klement, "Method Of Obtaining Fluid From the Intercellular Space of Foliage and the Fluid's Merit As Substrate For Phytobacterial Pathogens," supra by cutting interveinal pieces from tobacco leaf after they were rinsed in deionized water. The segments were submerged in water in a vacuum desiccator and vacuum was applied for five to 10 minutes. The vacuum was released slowly, the leaves were blotted dry and four to five pieces were rolled and placed in a 50 mL disposable syringe barrel cut down so as to be able to fit in a swinging bucket centrifuge rotor. The syringe barrel was placed in a 50 mL screw cap conical centrifuge tube and centrifuged in a swinging bucket rotor at 500×g for 30 minutes. […]
Peptides were analyzed by reverse phase chromatography on a 4.6 mm×250 mm Vydac C-4 protein column (Nest Group, Southboro, Mass.) using a 0% to 60% acetonitrile gradient in 0.1% TFA in 30 minutes on a Hewlett-Packard HP1090 high pressure liquid chromatograph (Hewlett-Packard, Avondale, Pa.). […] These peptides were purified and analyzed by FAB-MS and amino acid analysis. […]

Substance: [Met^21 (S)(O)Mag 2-OH [AMPPP 6]
- activity against Ecc SR319 (in words) [1]: not active
- MEAN MCIC VALUE [1]: > 150 micrograms/mL
- Mean MCIC Values against: P3 Fusarium (10^7 spores) [2]: 40 micrograms/mL
- Mean MCIC Values against: Trichoderma reesei (10^6 spores) [3]: 75 micrograms/mL
- Approximate % Reduction in Antifungal Activity by ECF [4]: 50%

Substance: GIGKFLHEAKKFGKAFVGEIMNS-OH
- cleaved bond [5]: His7-Glu8

Substance: GIGKFLFSAKKFGKAFVGEIMNS-OH
- cleaved bond [5]: Phe7-Ser8

Substance: GIGKFLHTAKKFGKAFVGEIMNS-OH
- cleaved bond [5]: His7-Thr8

Substance: GIGKFLHSAKKFGKAFVGEIMNS-OH
- cleaved bond [5]: His7-Ser8; also recorded: Met21-Asn22

Substance: GIGKFLHAAKKFGKAFVGEIMNS-OH
- cleaved bond [5]: His7-Ala8

Substance: GIGKFLKSAKKFGKAFVGEIMNS-OH
- cleaved bond [5]: Lys7-Ser8

Substance: GIGKFLRSAKKFGKAFVGEIMNS-OH
- cleaved bond [5]: Arg7-Ser8

Substance: GIGKFLHSAKKFGKAFVGEIMNS [AMPPP 1, Magainin 2-OH]
- Total Area Under Chromatogram Peaks: Fragment Gly^1 Xaa^7 [6]: 15.2%
- remaining at 1 h ([6]; cerebrospinal or other body fluid, read-out: Total Area Under Chromatogram Peaks: Parent AMPPP): 54.4%

Substance: GIGKFLHSAGKFGKAFVGEIMKS-OH
- cleaved bond [5]: His7-Ser8

Substance: [Met^21 (R)(O)]Mag 2-OH [AMPPP 7]
- activity against Ecc SR319 (in words) [1]: not active
- MEAN MCIC VALUE [1]: > 150 micrograms/mL
- Mean MCIC Values against: P3 Fusarium (10^7 spores) [2]: 50 micrograms/mL
- Mean MCIC Values against: Trichoderma reesei (10^6 spores) [3]: 75 micrograms/mL
